Measured values as given in patent publication US11661400B2, “NADPH oxidase inhibitors, pharmaceutical composition comprising the same, and application thereof” (TAIWANJ PHARMACEUTICALS CO., LTD., priority 2018, dated 2023).

How the values were obtained:
[1] = biological target: T1, NOX2 (Homo sapiens, UniProt P04839); experiment: NOX2 HL60 cell-based assay (PMA oxidative burst, L012 chemiluminescence); settings: DMSO-differentiated HL-60 cells, PMA-stimulated
T1 construct: HL-60 cells, rich in NOX2 expression; endogenous in cells; host or cells: DMSO-differentiated HL-60
T1 sequence (P04839 2-570 limits assumed): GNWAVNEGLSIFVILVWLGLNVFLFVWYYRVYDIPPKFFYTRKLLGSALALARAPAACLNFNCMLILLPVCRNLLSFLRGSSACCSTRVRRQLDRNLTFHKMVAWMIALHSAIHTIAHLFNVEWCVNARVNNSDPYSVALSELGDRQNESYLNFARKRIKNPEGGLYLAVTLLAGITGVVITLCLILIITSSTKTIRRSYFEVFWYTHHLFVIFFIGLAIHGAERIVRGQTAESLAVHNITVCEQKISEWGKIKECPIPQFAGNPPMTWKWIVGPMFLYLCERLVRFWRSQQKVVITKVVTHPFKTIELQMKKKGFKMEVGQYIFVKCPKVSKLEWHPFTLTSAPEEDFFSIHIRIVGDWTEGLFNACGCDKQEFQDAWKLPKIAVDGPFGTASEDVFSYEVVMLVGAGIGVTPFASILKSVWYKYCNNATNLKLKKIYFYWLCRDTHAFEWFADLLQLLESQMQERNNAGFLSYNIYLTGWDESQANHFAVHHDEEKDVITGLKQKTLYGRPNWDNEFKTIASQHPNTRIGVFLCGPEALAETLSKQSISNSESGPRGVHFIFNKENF
T1 sequence (P13498 2-195 partner limits assumed): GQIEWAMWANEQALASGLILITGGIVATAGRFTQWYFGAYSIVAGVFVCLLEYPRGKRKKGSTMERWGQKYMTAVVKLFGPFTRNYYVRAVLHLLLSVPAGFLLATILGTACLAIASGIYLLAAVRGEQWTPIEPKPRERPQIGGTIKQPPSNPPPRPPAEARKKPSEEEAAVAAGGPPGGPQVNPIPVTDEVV
In short: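 DMSO-differentiated HL-60 cells (2.5×10^5/well) with 100 μM L012 preincubated with compound 30-60 min at 37 °C in the dark. Oxidative burst triggered by 10 ng/mL PMA; superoxide chemiluminescence read every 5 min for 60 min.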

[2] = biological target: T2, NOX1 (Homo sapiens, UniProt Q9Y5S8); experiment: NOX1 HT29 cell-based assay (luminol/HRP luminescence); settings: HT29 cells, DMSO = 0%, GKT137831 = 100%
T2 construct: endogenous in cells; host or cells: HT29
T2 sequence (Q9Y5S8 1-564): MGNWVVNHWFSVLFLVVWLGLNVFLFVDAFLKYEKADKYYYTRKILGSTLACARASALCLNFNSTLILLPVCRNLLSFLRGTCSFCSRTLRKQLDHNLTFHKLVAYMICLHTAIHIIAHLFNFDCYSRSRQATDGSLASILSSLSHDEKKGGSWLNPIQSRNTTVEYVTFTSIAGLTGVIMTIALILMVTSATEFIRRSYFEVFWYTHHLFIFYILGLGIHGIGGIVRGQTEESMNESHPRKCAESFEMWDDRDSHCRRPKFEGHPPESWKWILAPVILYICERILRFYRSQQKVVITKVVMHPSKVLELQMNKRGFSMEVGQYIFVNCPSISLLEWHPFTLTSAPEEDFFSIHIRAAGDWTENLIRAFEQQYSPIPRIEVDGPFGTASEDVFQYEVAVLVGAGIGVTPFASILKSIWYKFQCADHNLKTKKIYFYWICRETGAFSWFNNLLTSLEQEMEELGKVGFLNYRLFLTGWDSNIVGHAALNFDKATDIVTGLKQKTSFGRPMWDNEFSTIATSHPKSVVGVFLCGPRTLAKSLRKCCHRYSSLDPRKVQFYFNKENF
T2 sequence (P13498 2-195 partner limits assumed): T1 sequence (P13498 2-195 partner limits assumed)
In short: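 HT29 cells (1-2×10^5 per well) pretreated 30-60 min at 37 °C with compound at 100 nM and 1000 nM final, in duplicate, 0.1% DMSO. ROS read as luminol (100 μM)/HRP (0.4 U) luminescence. Activity normalised to DMSO (0%) and GKT137831 (100%).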

[3] = biological target: T3, NOX4 (Homo sapiens, UniProt Q9NPH5); experiment: NOX4 HEK293 overexpression cell-based assay (Amplex Red H2O2); settings: HEK293 cells stably overexpressing NOX4, DMSO = 0, GKT137831 = 100
T3 construct: expressed in transfected cells
T3 sequence (Q9NPH5 1-578): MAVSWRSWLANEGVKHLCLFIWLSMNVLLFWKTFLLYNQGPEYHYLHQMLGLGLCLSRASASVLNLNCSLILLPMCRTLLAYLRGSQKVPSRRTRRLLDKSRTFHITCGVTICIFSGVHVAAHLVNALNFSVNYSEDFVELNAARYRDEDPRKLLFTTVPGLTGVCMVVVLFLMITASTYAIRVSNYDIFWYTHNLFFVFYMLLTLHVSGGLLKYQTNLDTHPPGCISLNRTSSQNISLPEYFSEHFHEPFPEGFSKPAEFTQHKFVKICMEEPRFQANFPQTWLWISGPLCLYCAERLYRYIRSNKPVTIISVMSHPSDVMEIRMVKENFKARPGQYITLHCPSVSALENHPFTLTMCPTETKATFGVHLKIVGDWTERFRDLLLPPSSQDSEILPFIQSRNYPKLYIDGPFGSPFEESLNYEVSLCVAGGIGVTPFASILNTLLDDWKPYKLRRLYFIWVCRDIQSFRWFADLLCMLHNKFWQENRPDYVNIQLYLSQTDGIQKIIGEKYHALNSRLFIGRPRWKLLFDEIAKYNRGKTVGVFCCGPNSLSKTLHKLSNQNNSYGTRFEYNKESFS
T3 sequence (P13498 2-195 partner limits assumed): T1 sequence (P13498 2-195 partner limits assumed)
In short: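 HEK293 cells stably overexpressing NOX4 (3×10^4) preincubated 30 min at 37° C with compound in KRPG buffer, then mixed with Amplex Red reagent solution (50 μM Amplex Red, 0.1 units/mL HRP) for 90 min at 37° C in the dark. Supernatant fluorescence read at 530/590 nm; DMSO set to 0 and GKT137831 to 100.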

Row | Structure (SMILES) | inhibition at 0.1 µM ([1]; HL-60, 100 nM) [%] | inhibition at 1 µM ([1]; HL-60, 1000 nM) [%] | inhibition at 0.1 µM ([2]; HT-29, 100 nM) [%] | inhibition at 1 µM ([2]; HT-29, 1000 nM) [%] | inhibition at 0.1 µM ([3]; HEK293, 100 nM) [%] | inhibition at 1 µM ([3]; HEK293, 1000 nM) [%] | % Inhibition NOX2 ([1]; 100 nM, 0.1 µM) | % Inhibition NOX2 ([1]; 1000 nM, 1 µM) | % Inhibition NOX1 ([2]; 100 nM) | % Inhibition NOX1 ([2]; 1000 nM) | % Inhibition NOX4 ([3]; 100 nM) | % Inhibition NOX4 ([3]; 1000 nM) | % Inhibition NOX2 ([1]; 100 nM, acetate, 0.1 µM) | % Inhibition NOX2 ([1]; 1000 nM, acetate, 1 µM)
1 | COc1cc2[nH]c(-c3ccccc3)c(N)c(=O)c2cc1OC [Compound 37] | 50 to 79 | ≥ 80 | ≤ 19 | ≥ 80 | ≤ 19 | 50 to 79 | – | – | – | – | – | – | – | –
2 | COc1cc2[nH]c(-c3ccccc3C(F)(F)F)c(O)c(=O)c2cc1OC [Compound 41, 3-hydroxy-6,7-dimethoxy-2-(2-(trifluoromethyl)phenyl) quinolin-4(1H)-one] | – | – | – | – | – | – | C (the percent of inhibition of NOX by the compounds ranges from 2000 to 49%) | A (the percent of inhibition of NOX by the compounds is larger than or equals to 80%) | A (the percent of inhibition of NOX by the compounds is larger than or equals to 80%) | A (the percent of inhibition of NOX by the compounds is larger than or equals to 80%) | B (the percent of inhibition of NOX by the compounds ranges from 50% o to 79% o) | B (the percent of inhibition of NOX by the compounds ranges from 50% o to 79% o) | – | –
3 | COc1cc2[nH]c(-c3ccccc3C(F)(F)F)c(O)c(=O)c2cc1OC [Compound 43, 3-hydroxy-6,7-dimethoxy-2-(2-(trifluoromethyl)phenyl)quinolin-4(1H)-one acetate] | – | – | – | – | – | – | – | – | A (the percent of inhibition of NOX by the compounds is larger than or equals to 80%) | A (the percent of inhibition of NOX by the compounds is larger than or equals to 80%) | B (the percent of inhibition of NOX by the compounds ranges from 50% o to 79% o) | B (the percent of inhibition of NOX by the compounds ranges from 50% o to 79% o) | B (the percent of inhibition of NOX by the compounds ranges from 50% o to 79% o) | A (the percent of inhibition of NOX by the compounds is larger than or equals to 80%)
